# Data: patent US11963520B2, “Transgenic mouse expressing human cereblon” (Celgene Corporation, priority 2016, dated 2024)
# Experiments:
# Type in all cases: cell-based, mouse
# [1] = system: GSPT1; assay: Ex vivo compound treatment of splenocytes, western blot of GSPT1 degradation (GSPT1 versus GAPDH); details: 4 hr ex vivo
# Method: (§1) For example, degradation of CRBN substrate (e.g., Aiolos, Ikaros, or GSPT1) was evaluated by ex vivo compound treatment of splenocytes isolated from the human CRBN transgenic mice. Spleens from wild type (WT), heterozygous (HET), and homozygous human CRBN knock-in mice (HOM) were collected and dissociated in 5 mL PBS using gentleMACS™ Dissociator (Miltenyi Biotec, San Diego, CA). Spleen homogenates were filtered using 70 μm pre-separation filters (#130-095-823, Miltenyi Biotec) into 15-mL conical tubes and centrifuged at 1200 rpm for 5 min. After decanting, splenocytes were re-suspended in 1 mL of ACK Lysing Buffer (Gibco #A10492-01, Thermo Fisher Scientific, Waltham, MA) for 2 min. to lyse red blood cells. Ten mL of cold PBS was added to each conical tube to stop lysis, and splenocytes were again centrifuged at 1200 rpm for 5 min. After decanting, splenocytes were re-suspended in 1 mL PBS, filtered again, and pooled for each mouse phenotype to count and determine viability using Vi-Cell™ XR cell counter (Beckman Coulter, Indianapolis, IN). After counting and viability check, tubes with pooled splenocytes were centrifuged at 1200 rpm for 5 min., decanted, and resuspended in warm RPMI 1640 media supplemented with 10% FBS at a concentration of 5.5×10^6 splenocytes/mL (20-30 mL depending on number of splenocytes).
# (§2) 15×10^6 WT, HET, or HOM splenocytes were plated in wells of separate 6-well plates. Compounds diluted in DMSO (final concentration 0.2%)/RPMI 1640 media were dispensed into wells at concentrations ranging from 10 μM to 1 nM. 0.2% DMSO was also dispensed in one well of each plate as a negative control. Splenocytes were treated with compounds from 4 to 24 hrs in incubators at 37° C. Compound-treated splenocytes were then collected in 15 mL conical tubes, centrifuged at 1500 rpm for 6 mins, media aspirated off, and washed once with 5 mL PBS. After washing, splenocytes were again centrifuged, PBS was aspirated off, and splenocyte pellets were flash frozen on dry ice.
# Splenocyte pellets were lysed using cold 1× cell lysis buffer (#9803, Cell Signaling Technology, Danvers, MA), supplemented with cOmplete ULTRA protease inhibitor tablet (#05892920001, Roche Diagnostics Corporation, Indianapolis, IN) and phosphatase inhibitors (Pierce #78442, Thermo Fisher Scientific, Waltham, MA). Protein concentration of lysates was determined using BCA Protein Assay Kit (Pierce #A10492-01, Thermo Fisher Scientific, Waltham, MA) and western blots were run to evaluate substrate degradation resulting from ex vivo compound treatment. Twenty microgram of each splenoctye lysate was loaded onto 4-12% Criterion XT Bis Tris gels (Bio-Rad #3450124, Bio-Rad Laboratories, Hercules, CA) and run at 130 V for 1.5 hr and then transferred onto nitrocellulose membranes using Trans-Blot Turbo Transfer System (Bio-Rad Laboratories). After 1 hr of blocking in Odyssey® Blocking buffer (#927-40100, LI-COR Biotechnology, Lincoln, NE), membranes were incubated with primary antibodies for Aiolos (polyclonal goat, #sc-18683, Santa Cruz Biotechnology, Dallas, TX), Ikaros (monoclonal rabbit, #14859, Cell Signaling Technology), GSPT-1 (polyclonal rabbit, #ab49878, Abcam PLC, Cambridge, United Kingdom), GAPDH (monoclonal mouse, #AM4300, Thermo Fisher Scientific) overnight at 4° C. After washing in PBST, membranes were probed with a fluorescent secondary antibody, Alexa Fluor 680® goat anti-rabbit IgG (Invitrogen #A-21076, Thermo Fisher Scientific) or IRDye® 800CW goat anti-mouse IgG (#926-32210, LI-COR Biotechnology), for 1 hr at room temperature. Following incubation with secondary antibodies, membranes were again washed in PBST. Membranes were scanned using Odyssey® CLx Imaging System (LI-COR Biotechnology) and quantified using Image Studio™ software. […]
# [2] = system: Ikaros; assay: Ex vivo compound treatment of splenocytes, western blot of Ikaros degradation (Ikaros versus GAPDH)
# Method: as §1, §2
# (§3) Splenocyte pellets were lysed using cold 1× cell lysis buffer (#9803, Cell Signaling Technology, Danvers, MA), supplemented with cOmplete ULTRA protease inhibitor tablet (#05892920001, Roche Diagnostics Corporation, Indianapolis, IN) and phosphatase inhibitors (Pierce #78442, Thermo Fisher Scientific, Waltham, MA). Protein concentration of lysates was determined using BCA Protein Assay Kit (Pierce #A10492-01, Thermo Fisher Scientific, Waltham, MA) and western blots were run to evaluate substrate degradation resulting from ex vivo compound treatment. Twenty microgram of each splenoctye lysate was loaded onto 4-12% Criterion XT Bis Tris gels (Bio-Rad #3450124, Bio-Rad Laboratories, Hercules, CA) and run at 130 V for 1.5 hr and then transferred onto nitrocellulose membranes using Trans-Blot Turbo Transfer System (Bio-Rad Laboratories). After 1 hr of blocking in Odyssey® Blocking buffer (#927-40100, LI-COR Biotechnology, Lincoln, NE), membranes were incubated with primary antibodies for Aiolos (polyclonal goat, #sc-18683, Santa Cruz Biotechnology, Dallas, TX), Ikaros (monoclonal rabbit, #14859, Cell Signaling Technology), GSPT-1 (polyclonal rabbit, #ab49878, Abcam PLC, Cambridge, United Kingdom), GAPDH (monoclonal mouse, #AM4300, Thermo Fisher Scientific) overnight at 4° C. After washing in PBST, membranes were probed with a fluorescent secondary antibody, Alexa Fluor 680® goat anti-rabbit IgG (Invitrogen #A-21076, Thermo Fisher Scientific) or IRDye® 800CW goat anti-mouse IgG (#926-32210, LI-COR Biotechnology), for 1 hr at room temperature. Following incubation with secondary antibodies, membranes were again washed in PBST. Membranes were scanned using Odyssey® CLx Imaging System (LI-COR Biotechnology) and quantified using Image Studio™ software.
# (§4) A second ex vivo experiment using splenocytes from WT, HET, and HOM mice was conducted to study the dose dependency of Aiolos or Ikaros degradation in response to a range of Compound B concentrations. […]
# [3] = system: Aiolos; assay: Ex vivo compound treatment of splenocytes, western blot of Aiolos degradation (Aiolos versus GAPDH)
# Method: as §1, §2, §3, §4
# [4] = HET and HOM splenocytes, 1 μM or 10 μM, 24 hrs ex vivo
# [5] = HET splenocytes, 0.001 μM, 6 hr ex vivo
# [6] = HET splenocytes, 0.01 μM, 6 hr ex vivo
# [7] = HET splenocytes, 0.1 μM, 6 hr ex vivo
# [8] = HET splenocytes, 1 μM, 6 hr ex vivo
# [9] = HET splenocytes, 1 μM, 24 hr ex vivo
# [10] = HOM splenocytes, 0.001 μM, 6 hr ex vivo
# [11] = HOM splenocytes, 0.01 μM, 6 hr ex vivo
# [12] = HOM splenocytes, 0.1 μM, 6 hr ex vivo
# [13] = HOM splenocytes, 1 μM, 6 hr ex vivo
# [14] = HOM splenocytes, 1 μM, 24 hr ex vivo
# [15] = WT splenocytes, 1 μM or 10 μM, 24 hrs ex vivo
# [16] = WT splenocytes, 1 μM, 24 hr ex vivo
# [17] = WT splenocytes, 10 μM, 24 hr ex vivo
# [18] = WT splenocytes, any concentration (1, 0.1, 0.01, 0.001 μM), 6 hr ex vivo
smiles,measurement,setting,value
"Cc1ccc(NC(=O)NCc2ccc3c(c2)CN(C2CCC(=O)NC2=O)C3=O)cc1Cl (stereo not drawn) [Compound C, 1-(3-chloro-4-methylphenyl)-3-((2-(2,6-dioxopiperidin-3-yl)-1-oxoisoindolin-5-yl)methyl)urea]",degradation of GSPT1,"[1]; HOM splenocytes, 1 nM",65%
same,degradation of GSPT1,"[1]; HOM splenocytes, 100 nM",89%
same,degradation of GSPT1 (in words),[1]; HOM splenocytes,significant degradation
same,degradation of GSPT1,"[1]; WT splenocytes, 1 nM",11%
same,degradation of GSPT1,"[1]; WT splenocytes, 100 nM",7%
same,degradation of GSPT1 (in words),[1]; WT splenocytes,only minimal degradation
"O=C1CCC(N2Cc3cc(CNC(=O)C(F)(F)c4ccc(F)cc4)ccc3C2=O)C(=O)N1 (stereo not drawn) [Compound E, 2-(4-flurophenyl)-N-((2-(2,6-dioxopiperidin-3-yl)-1-oxoisoindolin-5-yl)methyl)-2,2-difluoroacetamide]",degradation of GSPT1,"[1]; HOM splenocytes, 100 nM",70%
same,degradation of GSPT1,"[1]; HOM splenocytes, 10 μM",74%
same,degradation of GSPT1 (in words),[1]; HOM splenocytes,significant degradation
same,degradation of GSPT1,"[1]; WT splenocytes, 100 nM",0%
same,degradation of GSPT1,"[1]; WT splenocytes, 10 μM",6%
"O=C1CC[C@H](N2Cc3c(OCc4ccc(CN5CCOCC5)cc4)cccc3C2=O)C(=O)N1 (stereo in doubt) [Compound B, 3-(4-((4-(morpholinomethyl)benzyl)oxy)-1-oxoisoindolin-2-yl)piperidine-2,6-dione]",degradation of Ikaros (in words),[2]; [4],significant degradation
same,degradation of Ikaros,[2]; [5],0%
same,degradation of Ikaros,[2]; [6],8%
same,degradation of Ikaros,[2]; [7],45%
same,degradation of Ikaros,[2]; [8],49%
same,degradation of Ikaros,[2]; [9],60%
same,degradation of Ikaros,"[2]; HET splenocytes, 10 μM, 24 hr ex vivo",68%
same,degradation of Ikaros,[2]; [10],14%
same,degradation of Ikaros,[2]; [11],41%
same,degradation of Ikaros,[2]; [12],55%
same,degradation of Ikaros,[2]; [13],59%
same,degradation of Ikaros,[2]; [14],76%
same,degradation of Ikaros,"[2]; HOM splenocytes, 10 μM, 24 hr ex vivo",82%
same,degradation of Ikaros (in words),[2]; [15],only minimal degradation
same,degradation of Ikaros,[2]; [16],23%
same,degradation of Ikaros,[2]; [17],20%
same,degradation of Ikaros (in words),[2]; [18],no degradation
same,degradation of Aiolos,"[3]; HET (heterozygous human CRBN knock-in) splenocytes, 10 μM, 24 hr ex vivo",77%
same,degradation of Aiolos (in words),[3]; [4],significant degradation
same,degradation of Aiolos,[3]; [5],0%
same,degradation of Aiolos,[3]; [6],13%
same,degradation of Aiolos,[3]; [7],32%
same,degradation of Aiolos,[3]; [8],41%
same,degradation of Aiolos,[3]; [9],76%
same,degradation of Aiolos,"[3]; HOM (homozygous human CRBN knock-in) splenocytes, 10 μM, 24 hr ex vivo",84%
same,degradation of Aiolos,[3]; [10],28%
same,degradation of Aiolos,[3]; [11],54%
same,degradation of Aiolos,[3]; [12],66%
same,degradation of Aiolos,[3]; [13],78%
same,degradation of Aiolos,[3]; [14],81%
same,degradation of Aiolos (in words),[3]; [15],only minimal degradation
same,degradation of Aiolos,[3]; [16],28%
same,degradation of Aiolos,[3]; [17],27%
same,degradation of Aiolos (in words),[3]; [18],no degradation
